# Results as given in patent publication US9051306B2, “Indirubin derivative having highly selective cytotoxicity for malignant tumors” (NIHON UNIVERSITY, priority 2011, dated 2015).
# Entries after “also recorded” stand apart in the source; their conditions may differ. Like-named read-outs stand apart in the source and are kept apart here.
# How the values were obtained:
# [1] = tested on: human liver cancer cells HepG-2; assay: Antitumor activity, MTT method, HepG-2; type: cell-based
# Description: (§1) Antitumor activity was determined by the MTT (3-(4,5-dimethylthiazol-2-yl)-2,5-diphenyltetrazolium bromide) method.
# (§2) One hundred μL of a suspension of tumor cells in an RPMI 1640 medium was seeded into a 96-well plate (1×10^4 cells/well) and cultured for 24 hours (5% CO2, 37° C., saturated humidity conditions). Subsequently, the test compound (final concentration of from 1×10^−5 to 1×10^−8 M) and DMSO as a control were each added in an amount of 0.2 μL and allowed to act on the tumor cells for 48 hours. Subsequently, 10 μL of a 0.5% MTT solution was added. After 3 hours, 100 μL of a reaction terminating solution (0.04 N HCl/isopropanol) was added to terminate the reaction. After thorough pipetting, the absorbance was measured at 570 nm (top) and 655 nm (bottom) using a microplate reader. The cell survival rate for each sample at each concentration was calculated as a percentage to the control group, and IC50 values were determined from the data. The tumor cells used were human neuroblastoma cells IMR-32, SK-N-SH, LA-N-1, and NB-39 and human liver cancer cells HepG-2. Non-tumor cells: normal human dermal fibroblasts (NHDF) and human umbilical vein endothelial cells (HUVEC) were also used.
# [2] = tested on: human neuroblastoma IMR-32 cells; assay: Ability to induce apoptosis, flow cytometry (Annexin V-FITC/PI); type: cell-based; details: 24 hours
# Description: Flow cytometry was used to detect whether the compound (HS-2) of the present invention had the ability to induce apoptosis of human neuroblastoma IMR-32 cells. Specifically, 2 mL of a suspension of cells (IMR-32) in an RPMI 1640 medium was seeded into a 6-well plate (1×10^6 cells/well) and cultured for 24 hours (under 5% CO2, 37° C., and saturated humidity conditions). Subsequently, the compound (HS-2) was added at a final concentration of from 1×10^−5 M to 1×10^−7 M and incubated under 37° C. and 5% CO2 conditions for 24 hours. The cells were detached with trypsin and washed with PBS. Annexin V-FITC and propidium iodide (PI) were then added to the cells to carry out flow cytometry. In this technique, only Annexin V-FITC fluorescence is observed from cells in the early apoptosis phase, and both Annexin V fluorescence and PI fluorescence are observed from cells in the late apoptosis phase.
# [3] = tested on: IMR-32 cells; assay: Ability to induce apoptosis, Hoechst 33342 staining method; type: cell-based, human
# Description: The ability to induce apoptosis was examined using nuclear staining by the Hoechst 33342 staining method.
# Two mL of a suspension of cells (IMR-32) in an RPMI 1640 medium was seeded into a 6-well plate (1×10^5 cells/well) and cultured for 24 hours (under 5% CO2, 37° C., and saturated humidity conditions). Subsequently, the test compound (final concentration of from 1×10^−5 M to 1×10^−7 M) and DMSO as a control were each added in an amount of 4 μL and allowed to act on the cells for 24 hours. Subsequently, 100 μL of a 0.02% Hoechst 33342 solution was added. After 15 minutes, phase-contrast images and fluorescence images of the cells were taken with a fluorescence microscope to observe changes in cell morphology.
# [4] = tested on: human neuroblastoma cells IMR-32; assay: Antitumor activity, MTT method, IMR-32; type: cell-based
# Description: as §1, §2
# [5] = tested on: human liver cancer cell line HepG2; assay: Antitumor activity (2), Alamar Blue cell survival; type: cell-based; details: 24 hours, read-out: cytotoxic activity (IC50: 50% inhibitory concentration)
# Description: Fetal bovine serum (FBS) was added at a final concentration of 10% to dulbecco's modified eagle's medium (DMEM, Sigma-Aldrich), and a penicillin-streptomycin solution (GIBCO) was further added at a concentration of 0.1 mg/mL.
# An Alamar Blue solution manufactured by Wako Pure Chemical Industries, Ltd. was used.
# One hundred μL aliquot of a suspension of human liver cancer cell line HepG2 cells in DMEM medium (1.0×10^5 cells/mL) was dispensed into a 96-well culture plate. The cells were allowed to adhere to the plate by being cultured at 37° C. in 5% CO2 under saturated humidity conditions. After culture for 24 hours, the medium was removed by suction, and 100 μL of a test compound-containing medium (containing 1% DMSO) was added. The cells were cultured at 37° C. in 5% CO2 under saturated humidity conditions. After culture for 24 hours, the medium was removed by suction, and the cells were washed with phosphate buffered saline (PBS). The Alamar Blue reagent solution (100 μL) diluted 10 times with the medium was added to each well, and the cells were cultured under the same conditions. After 1 hour, the fluorescence intensity was measured at an excitation wavelength of 577 nm and a detection wavelength of 612 nm. When the cell survival rate was calculated, the value for the well added with the vehicle (containing 1% DMSO) was normalized as 100%.
# [6] = tested on: human umbilical vein endothelial cells (HUVEC); assay: Cytotoxicity, MTT method, HUVEC non-tumor cells; type: cell-based
# Description: as §1, §2
# [7] = tested on: normal human dermal fibroblasts (NHDF); assay: Cytotoxicity, MTT method, NHDF non-tumor cells; type: cell-based
# Description: as §1, §2
# [8] = tested on: human neuroblastoma cells LA-N-1; assay: Antitumor activity, MTT method, LA-N-1; type: cell-based
# Description: as §1, §2
# [9] = tested on: human neuroblastoma cells NB-39; assay: Antitumor activity, MTT method, NB-39; type: cell-based
# Description: as §1, §2
# [10] = tested on: human neuroblastoma cells SK-N-SH; assay: Antitumor activity, MTT method, SK-N-SH; type: cell-based
# Description: as §1, §2
# [11] = tested on: tumor cells; assay: Antitumor activity, MTT method, overall statement on tumor cells; type: cell-based, human; details: from FIG. 1 and Table 1
# Description: as §1, §2
smiles,measurement,setting,value
"O=C1Nc2ccccc2/C1=C1/Nc2ccccc2/C1=N\OCC1CO1 (stereo not drawn) [HS-2, indirubin-3′-(O-oxiran-2-ylmethyl)oxime]",IC50,"[1]; Homo sapiens, HepG2",1000 nM
same,apoptosis-inducing effect,"[2]; IMR-32, 10 μM",significant apoptosis-inducing effect
same,ability to induce apoptosis,"[2]; IMR-32, 1×10^−5 M to 1×10^−7 M, FIG. 3",induced apoptosis; also recorded: concentration-dependent ability to induce apoptosis
same,apoptosis of IMR-32 neuroblastoma cells,[3]; FIG. 2 legend,induced apoptosis
same,nuclear morphology (Hoechst 33342 staining),"[3]; IMR-32, 0.1 μM, 24 hours, FIG. 2",induced nuclear aggregation and fragmentation
same,IC50,"[4]; Homo sapiens, IMR-32, 48 h",329 nM
same,IC50,[5]; Homo sapiens,1000 nM
same,IC50,"[6]; Homo sapiens, HUVEC, 48 h",1750 nM
same,IC50,"[7]; Homo sapiens, NHDF, 48 h",61400 nM
same,IC50,"[8]; Homo sapiens, LAN1, 48 h",139 nM
same,IC50,"[9]; Homo sapiens, NB39, 48 h",550 nM
same,IC50,"[10]; Homo sapiens, 48 h",325 nM
same,antitumor activity relative to cisplatin (CDDP),[11],50 to 100 times
"[NH2][Pt]([NH2])([Cl])[Cl] [CDDP, cisplatin, reference compound]",IC50,"[1]; HepG-2, Table 1, read-out: IC50",10000 nM
same,IC50,"[4]; IMR-32, MTT, 48 hours, read-out: IC50",28200 nM
same,IC50,[5],10000 nM
same,IC50,"[6]; HUVEC normal cells, MTT, 48 hours, read-out: IC50",69800 nM
same,IC50,"[7]; NHDF normal cells, MTT, 48 hours, read-out: IC50",> 100000 nM
same,IC50,"[8]; LA-N-1, MTT, 48 hours, read-out: IC50",1630 nM
same,IC50,"[9]; NB-39, MTT, 48 hours, read-out: IC50",2040 nM
same,IC50,"[10]; MTT, 48 hours, read-out: IC50",12100 nM
